Patent publication US4879370A, “Glutathione delivery system” (Cornell Research Foundation, Inc., priority 1985, dated 1989)

Tests used:
[1] = test system: GSH level in the liver and in the kidney; assay: GSH level in liver and kidney of starved mice, time course (Example 6); type: in vivo; settings: mice starved 24 hours, 10 mmol/kg i.p., 2 to 3 hours after the administration
Protocol: The test compound was dissolved in sterile water to give a test solution. Groups of 3 mice, each having a body weight of 20 to 25 g, were starved over a period of 24 hours and treated intraperitoneally with a dose of 10 mmol/kg of the test compound. Mice were dissected by every two hours, and the liver and kidney were taken out. GSH analysis was performed on each of the organs.

[2] = test system: mice treated with lethal dose of acetaminophen; assay: Survival of starved mice after lethal dose of acetaminophen (Example 8); type: in vivo; settings: acetaminophen 5 mmol/kg i.p., test compound 10 mmol/kg one hour later, 15 mice
Source text: Starved mice were intraperitoneally treated with 5 mmol/kg (lethal dose) of acetaminophen and, one hour later, with 10 mmol/kg of the test compound.

[3] = test system: glutathione levels of the liver and kidney; assay: Liver and kidney glutathione levels of fasted mice given glutathione ester or glutathione (Example 1, Comparative Example 1); type: in vivo
Protocol: A solution of the glutathione ester was prepared in aseptic water. […] At intervals of 2 hours, as shown in FIGS. 1(a) and (b), the animals were decapitated and the liver and kidney tissues were removed and analyzed for glutathione. Using groups of 3 mice each, values are given as means±S.D.

[4] = test system: glutathione levels of the liver and kidney; assay: Liver and kidney glutathione levels of mice pretreated with buthionine sulfoximine (Example 2); type: in vivo; settings: 2 mmol/kg buthionine sulfoximine
Source text: Controls were again given saline, with tissue levels of GSH being determined at the indicated intervals. Values are means±S.D., using groups of 3 mice each.

[5] = test system: mice given a lethal dose of acetaminophen; settings: acetaminophen 5 mmole per kilogram, ester 10 mmole per kilogram 1 hour later, 15 mice
[6] = mice fasted 24 hours, intraperitoneal 10 millimoles per kilogram, 2 hours after administration, vs 0.15M NaCl controls

SMILES | GSH level in the kidney [1] | GSH level in the liver [1] | survival after 7 days [2] | other results
CCCCCCOC(=O)CNC(=O)[C@H](CS)NC(=O)CC[C@H](N)C(=O)O [GSH mono-n-hexyl ester, n-Hexyl γ-L-glutamyl-L-cysteinylglycinate] | substantial elevation | substantial elevation | survived and were recovered clearly after 7 days | 
CC(C)COC(=O)CNC(=O)[C@H](CS)NC(=O)CC[C@H](N)C(=O)O [GSH monoisobutyl ester, Isobutyl γ-L-glutamyl-L-cysteinylglycinate] | substantial elevation | substantial elevation | survived and were recovered clearly after 7 days | 
CC(C)OC(=O)CNC(=O)[C@H](CS)NC(=O)CC[C@H](N)C(=O)O [GSH monoisopropyl ester, Isopropyl γ-L-glutamyl-L-cysteinylglycinate] | substantial elevation | substantial elevation | survived and were recovered clearly after 7 days | 
N[C@@H](CCC(=O)N[C@@H](CS)C(=O)NCC(=O)O)C(=O)O [GSH, L-γ-glutamyl-L-cysteinyl-glycine, reference compound] | slight elevation | No elevation |  | glutathione level of the kidney [3, 6]: only a slight effect
CCCCS(=N)(=O)CCC(N)C(=O)O (centres unmarked) [buthionine sulfoximine] |  |  |  | glutathione levels of the liver and kidney after the inhibitor [4]: decreased to a very low value
CCOC(=O)CNC(=O)[C@H](CS)NC(=O)CC[C@H](N)C(=O)O [glutathione monoethyl ester, L-γ-Glutamyl-L Cysteinyl Glycyl Ethyl Ester] |  |  |  | effects on liver and kidney glutathione levels compared with glutathione monomethyl ester ([3]; fasted mice, as Example 1): about the same
COC(=O)CNC(=O)[C@H](CS)NC(=O)CC[C@H](N)C(=O)O [glutathione monomethyl ester] |  |  |  | glutathione level of the kidney [3, 6]: increased substantially; glutathione level of the liver [3, 6]: increased substantially; fatalities / survival at 7 days [5]: no fatalities were observed
